Results from the NIST ThermoML archive (doi:10.1016/j.tca.2005.04.030).

What was measured:
[1] = refractive index (Na D-line) (dimensionless); xn = mol fraction of the nth substance listed; conditions: 298 K, 101 kPa, Liquid, ATAGO RX-1000
[2] = xn = mol fraction of the nth substance listed; conditions: 298 K, 101 kPa, Liquid; for speed of sound: Anton Paar DSA 48; for mass density: Vibrating tube method

CCCCOC(C)(C)C [butane, 1-(1,1-dimethylethoxy)-] + CO
Conditions	mass density, [2] [kg/m3]	refractive index, [1]	speed of sound, [2] [m/s]
x1 = 0.0406	783.42	1.33673	1103
x1 = 0.0518	782.76	1.33916	1104
x1 = 0.0974	780.08	1.34774	1103
x1 = 0.0984	779.91	1.34786	1104
x1 = 0.1493	777.55	1.35545	1105
x1 = 0.198	775.42	1.36125	1107
x1 = 0.2051	775.26	1.36198	1107
x1 = 0.2448	773.83	1.3658	1108
x1 = 0.2974	772.2	1.37001	1109
x1 = 0.3373	770.98	1.37281	1109
x1 = 0.3581	770.41	1.37411	1109
x1 = 0.3783	769.88	1.37529	1109
x1 = 0.3922	769.7	1.37605	1111
x1 = 0.4633	767.85	1.37952	1111
x1 = 0.4954	767.15	1.38087	1113
x1 = 0.5003	767.05	1.38106	1111
x1 = 0.5598	765.86	1.38325	1112
x1 = 0.5955	765.21	1.3845	1114
x1 = 0.6138	764.85	1.38496	1113
x1 = 0.6463	764.27	1.38588	1113
x1 = 0.6737	763.79	1.3866	1114
x1 = 0.6923	763.48	1.38706	1114
x1 = 0.721	762.99	1.38773	1114
x1 = 0.7904	761.8	1.38914	1114
x1 = 0.7934	761.75	1.38918	1114
x1 = 0.8479	760.78	1.3901	1114
x1 = 0.8631	760.5	1.39032	1114
x1 = 0.8964	759.86	1.3907	1115
x1 = 0.9255	759.26	1.39109	1114

CCCCOC(C)(C)C [butane, 1-(1,1-dimethylethoxy)-] + CCO
Conditions	mass density, [2] [kg/m3]	refractive index, [1]	speed of sound, [2] [m/s]
x1 = 0.0493	782.41	1.36389	1141
x1 = 0.0589	781.92	1.36463	1139
x1 = 0.0797	780.9	1.36652	1139
x1 = 0.1006	779.92	1.36783	1136
x1 = 0.1555	777.57	1.37143	1133
x1 = 0.1947	776.05	1.37365	1132
x1 = 0.1978	775.98	1.37382	1132
x1 = 0.2528	773.99	1.3765	1129
x1 = 0.2923	772.71	1.37818	1127
x1 = 0.2967	772.6	1.37834	1128
x1 = 0.3512	770.96	1.38037	1125
x1 = 0.3966	769.83	1.38183	1124
x1 = 0.397	769.71	1.38186	1124
x1 = 0.4313	768.83	1.38287	1123
x1 = 0.4999	767.3	1.38462	1122
x1 = 0.5118	766.95	1.38494	1121
x1 = 0.559	765.94	1.38599	1120
x1 = 0.5953	765.3	1.38674	1119
x1 = 0.5964	765.18	1.38674	1119
x1 = 0.6627	763.92	1.38795	1118
x1 = 0.6853	763.6	1.38828	1120
x1 = 0.7044	763.16	1.38862	1118
x1 = 0.7441	762.45	1.3892	1117
x1 = 0.7814	761.8	1.3897	1117
x1 = 0.7853	761.72	1.38986	1118
x1 = 0.8493	760.58	1.3905	1116
x1 = 0.9072	759.5	1.39106	1115
x1 = 0.9404	758.85	1.39132	1115
